Here are results for 2 molecules from patent publication US20240327364A1, “THERAPEUTIC TARGETING OF GPR68 TO INDUCE FERROPTOSIS” (University Of Maryland, Baltimore, priority 2023, published 2024).

The structures appear in SMILES notation.

One test has as its target T1, PLK1 (Homo sapiens, UniProt P53350).
T1 construct: purchased DiscoveRx (Fremont, CA)
The test is described as follows: KinomeScan. The class given is binding. Particulars: read-out: % Control.

In another test the target is T2, GCN2(Kin.Dom.2, S808G) (Homo sapiens, UniProt Q9P2K8, S808G).
T2 construct: GCN2(Kin.Dom.2, S808G); purchased DiscoveRx (Fremont, CA)
The test is described as follows: KinomeScan. It counts as binding. Particulars: read-out: % Control.

The next test deals with T3, OSR1 (Homo sapiens, UniProt O95747).
T3 construct: purchased DiscoveRx
The test is described as follows: KinomeScan. The class given is binding. The note with it: read-out: % Control.

Another test deals with T4, MTOR (Homo sapiens, UniProt P42345).
T4 construct: purchased DiscoveRx
The test is described as follows: KinomeScan. The class given is binding. The note with it: read-out: % Control.

In another test the target is T5, DCAMKL3 (Homo sapiens, UniProt Q9C098).
T5 construct: purchased DiscoveRx (Fremont, CA), KinomeScan service
The test is described as follows: KinomeScan. The class given is binding. Particulars: read-out: % Control.

For another test, the target named is T6, MARK2 (Homo sapiens, UniProt Q7KZI7).
T6 construct: purchased DiscoveRx (Fremont, CA)
The test is described as follows: KinomeScan. Particulars: read-out: % Control. The class given is binding.

A further test addresses T7, NEK11 (Homo sapiens, UniProt Q8NG66).
T7 construct: purchased DiscoveRx
The test is described as follows: KinomeScan. The class given is binding. Particulars: read-out: % Control.

A further test has as its target T8, EP3 (Homo sapiens, UniProt P43115).
T8 construct: host or cells: Chem-1 cells expressing Gα15
The test is described as follows: GPCR Profiler. The class given is cell-based.

The next test addresses T9, TGFBR2 (Homo sapiens, UniProt P37173).
T9 construct: purchased DiscoveRx (Fremont, CA)
The test is described as follows: KinomeScan. It counts as binding. The note with it: read-out: % Control.

The next test has as its system zebrafish embryo. The test is described as follows: Zebrafish embryo phenotype. The class given is in vivo. Particulars: 10 uM. As to the method:
A chemical screen for small molecules that perturb embryonic development (dorsoventral axis) in zebrafish was performed as previously described (see Chen et al., 2009; Hao et al., 2013; Williams et al., 2015; Yu et al., 2008)). Briefly, pairs of WT zebrafish were mated, and fertilized eggs were arrayed in 96-well microtiter plates (5 embryos/well) containing […] E3 water. At 4 hours post fertilization (pf), a small molecule library from Vanderbilt High Throughput Screening Facility was added to each well to a final concentration of 10 μM. Embryos were incubated at 28.5 C until 24 and 48 hours pf, when they were examined for gross morphologic changes indicative of reproducible embryonic defects (dorsalization of the embryonic axis). A total of 30,000 compounds were screened. To discover novel small molecule modulators of embryonic development an unbiased screen of ˜30,000 small molecules was conducted, in which the compounds were assayed for their ability to induce phenotypic changes in the morphology of zebrafish. Further information on these assays can be found in Hao et al., 2013 and Williams et al., 2015. […] This compound was identified based on the phenotype of aberrant pigmentation. Compare FIG. 2B and FIG. 2C, which show a dorsal view of a representative DMSO vehicle control-treated zebrafish embryo at 48 hours pf and a dorsal view of a representative OGM1 (10 uM)-treated zebrafish embryo at 48 hours pf. […] Since GPCRs represent >30% of targets for FDA-approved small molecules and are known to modulate cell migration, activity against 158 GPCRs was assessed based on their chemical structures. GPCRs (158) were tested for agonist and antagonist activity at 10 μM. […] Chemical segregation analysis of zebrafish phenotype was conducted to further identify the inhibitory activity responsible for the zebrafish phenotype. […] The identities of the R groups in Formula A are shown below in Table 5.

Test [1] deals with T10, EGFR(L747-E749del, A750P) (Homo sapiens, UniProt P00533, A750P/DEL747-749).
T10 construct: purchased DiscoveRx (Fremont, CA), KinomeScan service
The test is described as follows: KinomeScan. It counts as binding. Particulars: read-out: % Control.

A further test has as its system SW480. The test is described as follows: Cell Titer-Glo viability, Colon adenocarcinoma. The note with it: 72 hours. It counts as cell-based. The protocol:
OGM2 kills wide variety of cancer cell types. Cell sensitivity can be classified in to Very Sensitive (LC50<2 μM), Sensitive (LC50=2 to 10 μM), Mildly Sensitive (LC50>10 μM), and Refractory (no killing at 10 μM). The listed established cell were incubated with OGM2 at 2 μM or 10 μM for 72 hours under standard cell culture conditions, and relative cell number was assessed using Cell Titer-Glo Luminescent Cell Viability Assay (Promega™) following the manufacturer's instructions. Luminescence was determined using a Cytation 5 reader and Gen5 software package (BioTek™).
Cancer cells, which are very sensitive to killing by OGM2 (LCs <2 μM), with reported mRNA expression of GPR68 and the related proton sensing receptor GPR4. LC50's (concentrations causing 50% lethality) were determined using CellTiter-Glo (Promega™, G7570). Cells were plated in 12-well plates (CELLTREAT Scientific Products, 229112) in 1 ml of DMEM with high glucose, GlutaMAX, HEPES, or RPMI 1640 with Penicillin-Streptomycin (ThermoFisher™, 10564029, 11875119 and 15140122) and 10% FBS. Cells were incubated overnight at 37° C. in 5% CO2. Then 1 mL of fresh media was added with DMSO, OGM, or positive control (Erastin; APExBIO Technology, LLC, B1524) and cells incubated for 3 days. On the third day, all media was removed, cells were rinsed with 1×PBS, PBS was removed, and 200 μL of 1× Passive Lysis Buffer (Promega™, E1941) was added to each well. […]. […] Plates were briefly spun down and read on a GloMax-Multi Detection System (Promega™).
The cells listed in the tables above were incubated with OGM2 at 2 μM or 10 μM for 72 hours under standard cell culture conditions, and relative cell number was assessed using Cell Titer-Glo Luminescent Cell Viability Assay (Promega™) following the manufacturer's instructions. Luminescence was determined using a Cytation 5 reader and Gen5 software package (BioTek™). […] The consensus normalized expression value (“nTPM”=normalize transcript per million) was calculated as the maximum nTPM value for each gene in the two data sources.

A further test has as its system U87. The test is described as follows: MitoTracker / TMRM staining. It counts as cell-based, human. The source says:
Lipid peroxidation associated with ferroptosis is known to disrupt mitochondrial membranes, resulting in smaller mitochondria.

The subject of a further test is LPS-induced ALI. The test is described as follows: LPS-induced acute lung injury. The class given is in vivo, mice. Particulars: LPS 0.7 mg/kg intratracheally; compounds intraperitoneally. The source says: PMN (polymorphonuclear neutrophils).

T8 sequence (P43115 whole entry): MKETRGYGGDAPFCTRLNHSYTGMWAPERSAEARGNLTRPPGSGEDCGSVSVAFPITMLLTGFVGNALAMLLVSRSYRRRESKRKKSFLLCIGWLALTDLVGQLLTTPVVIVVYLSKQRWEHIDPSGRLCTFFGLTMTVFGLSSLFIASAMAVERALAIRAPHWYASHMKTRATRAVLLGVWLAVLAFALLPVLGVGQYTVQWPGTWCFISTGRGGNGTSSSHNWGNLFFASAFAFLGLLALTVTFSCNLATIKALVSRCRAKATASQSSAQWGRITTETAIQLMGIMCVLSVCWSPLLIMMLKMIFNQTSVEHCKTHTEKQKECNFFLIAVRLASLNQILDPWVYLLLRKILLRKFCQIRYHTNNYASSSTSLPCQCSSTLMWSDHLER
T5 sequence (Q9C098 whole entry): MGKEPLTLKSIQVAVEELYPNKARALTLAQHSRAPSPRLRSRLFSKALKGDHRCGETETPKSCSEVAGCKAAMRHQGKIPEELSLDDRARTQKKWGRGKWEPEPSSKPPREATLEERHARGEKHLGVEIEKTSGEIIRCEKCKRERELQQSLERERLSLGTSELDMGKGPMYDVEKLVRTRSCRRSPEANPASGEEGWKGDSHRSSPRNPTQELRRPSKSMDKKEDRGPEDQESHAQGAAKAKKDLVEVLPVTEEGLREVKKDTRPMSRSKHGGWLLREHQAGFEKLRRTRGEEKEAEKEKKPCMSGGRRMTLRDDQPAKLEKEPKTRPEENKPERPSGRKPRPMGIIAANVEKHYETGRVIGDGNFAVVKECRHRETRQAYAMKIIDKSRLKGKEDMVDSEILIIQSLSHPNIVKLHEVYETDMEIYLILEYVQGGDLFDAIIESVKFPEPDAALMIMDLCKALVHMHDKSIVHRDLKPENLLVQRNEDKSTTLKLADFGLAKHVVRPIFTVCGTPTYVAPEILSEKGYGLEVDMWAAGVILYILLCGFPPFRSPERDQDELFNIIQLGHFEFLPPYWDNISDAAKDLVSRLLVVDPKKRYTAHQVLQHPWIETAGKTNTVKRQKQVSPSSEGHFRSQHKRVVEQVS
T9 sequence (P37173 23-567): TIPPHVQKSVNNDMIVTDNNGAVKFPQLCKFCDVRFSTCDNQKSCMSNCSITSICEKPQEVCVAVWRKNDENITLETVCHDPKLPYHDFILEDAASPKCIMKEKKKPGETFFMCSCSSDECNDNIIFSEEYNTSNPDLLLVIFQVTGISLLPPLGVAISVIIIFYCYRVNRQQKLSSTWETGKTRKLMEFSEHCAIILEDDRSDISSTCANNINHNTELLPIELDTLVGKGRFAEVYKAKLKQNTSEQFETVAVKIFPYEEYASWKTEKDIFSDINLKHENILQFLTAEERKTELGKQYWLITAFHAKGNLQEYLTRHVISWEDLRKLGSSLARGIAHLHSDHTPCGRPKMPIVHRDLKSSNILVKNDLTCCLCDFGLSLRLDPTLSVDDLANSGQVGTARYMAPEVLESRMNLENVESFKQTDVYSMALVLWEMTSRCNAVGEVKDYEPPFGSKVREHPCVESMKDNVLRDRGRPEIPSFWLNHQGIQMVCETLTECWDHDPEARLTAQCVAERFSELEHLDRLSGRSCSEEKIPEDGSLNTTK
T3 sequence (O95747 whole entry): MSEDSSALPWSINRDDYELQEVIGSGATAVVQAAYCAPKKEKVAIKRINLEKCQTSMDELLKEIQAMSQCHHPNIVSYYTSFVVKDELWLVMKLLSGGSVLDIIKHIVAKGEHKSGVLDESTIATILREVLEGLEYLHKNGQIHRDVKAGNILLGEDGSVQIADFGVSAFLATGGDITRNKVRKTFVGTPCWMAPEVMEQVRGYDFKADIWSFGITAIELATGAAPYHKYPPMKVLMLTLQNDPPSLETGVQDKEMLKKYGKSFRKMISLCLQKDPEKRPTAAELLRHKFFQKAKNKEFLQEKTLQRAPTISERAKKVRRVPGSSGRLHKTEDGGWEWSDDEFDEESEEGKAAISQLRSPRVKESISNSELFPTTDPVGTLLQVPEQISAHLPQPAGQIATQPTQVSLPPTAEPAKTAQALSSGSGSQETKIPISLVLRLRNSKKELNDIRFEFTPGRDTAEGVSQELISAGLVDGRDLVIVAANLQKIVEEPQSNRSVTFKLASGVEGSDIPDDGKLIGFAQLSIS
T2 sequence (Q9P2K8 590-1001 S808G limits assumed): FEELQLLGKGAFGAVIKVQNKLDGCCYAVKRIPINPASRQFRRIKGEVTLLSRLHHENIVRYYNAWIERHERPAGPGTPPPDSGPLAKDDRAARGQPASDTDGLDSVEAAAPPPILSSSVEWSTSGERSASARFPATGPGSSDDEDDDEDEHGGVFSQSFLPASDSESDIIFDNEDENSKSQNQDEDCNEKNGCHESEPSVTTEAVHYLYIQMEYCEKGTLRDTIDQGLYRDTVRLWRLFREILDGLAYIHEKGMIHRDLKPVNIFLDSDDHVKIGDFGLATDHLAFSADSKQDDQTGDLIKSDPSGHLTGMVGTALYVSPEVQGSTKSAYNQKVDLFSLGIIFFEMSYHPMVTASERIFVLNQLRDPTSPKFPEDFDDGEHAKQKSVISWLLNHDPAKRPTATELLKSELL
T10 sequence (P00533 with tags, fused parts or gaps DEL747-749/A750P): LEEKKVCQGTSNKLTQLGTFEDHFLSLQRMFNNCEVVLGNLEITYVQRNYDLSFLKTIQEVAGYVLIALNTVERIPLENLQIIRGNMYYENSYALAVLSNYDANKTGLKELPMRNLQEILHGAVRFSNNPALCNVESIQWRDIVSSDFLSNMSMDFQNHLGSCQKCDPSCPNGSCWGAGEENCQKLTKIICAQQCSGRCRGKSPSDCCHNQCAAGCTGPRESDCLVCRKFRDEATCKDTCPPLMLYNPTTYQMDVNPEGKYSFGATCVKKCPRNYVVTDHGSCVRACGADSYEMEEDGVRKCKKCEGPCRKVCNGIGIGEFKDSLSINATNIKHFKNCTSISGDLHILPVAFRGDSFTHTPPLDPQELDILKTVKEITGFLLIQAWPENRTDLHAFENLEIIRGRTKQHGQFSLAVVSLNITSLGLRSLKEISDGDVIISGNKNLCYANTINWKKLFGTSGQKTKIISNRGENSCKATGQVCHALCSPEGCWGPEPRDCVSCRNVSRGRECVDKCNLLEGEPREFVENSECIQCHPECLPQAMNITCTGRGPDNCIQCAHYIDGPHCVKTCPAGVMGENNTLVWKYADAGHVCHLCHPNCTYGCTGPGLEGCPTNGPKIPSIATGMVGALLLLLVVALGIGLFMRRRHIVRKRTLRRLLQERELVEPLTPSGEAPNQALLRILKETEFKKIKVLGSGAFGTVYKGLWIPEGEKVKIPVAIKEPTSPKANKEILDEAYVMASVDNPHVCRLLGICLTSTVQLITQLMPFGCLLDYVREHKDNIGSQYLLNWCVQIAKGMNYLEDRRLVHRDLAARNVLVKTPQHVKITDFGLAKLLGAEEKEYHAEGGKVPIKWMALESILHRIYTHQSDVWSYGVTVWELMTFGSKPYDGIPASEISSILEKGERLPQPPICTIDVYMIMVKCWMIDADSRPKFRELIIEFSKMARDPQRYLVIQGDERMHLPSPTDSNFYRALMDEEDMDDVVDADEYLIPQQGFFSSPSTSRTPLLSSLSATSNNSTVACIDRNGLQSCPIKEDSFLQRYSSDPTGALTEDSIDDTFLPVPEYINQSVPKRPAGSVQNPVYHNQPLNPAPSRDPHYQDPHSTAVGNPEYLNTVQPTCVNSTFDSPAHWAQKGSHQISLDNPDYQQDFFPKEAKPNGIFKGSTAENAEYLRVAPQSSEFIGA
T6 sequence (Q7KZI7 whole entry): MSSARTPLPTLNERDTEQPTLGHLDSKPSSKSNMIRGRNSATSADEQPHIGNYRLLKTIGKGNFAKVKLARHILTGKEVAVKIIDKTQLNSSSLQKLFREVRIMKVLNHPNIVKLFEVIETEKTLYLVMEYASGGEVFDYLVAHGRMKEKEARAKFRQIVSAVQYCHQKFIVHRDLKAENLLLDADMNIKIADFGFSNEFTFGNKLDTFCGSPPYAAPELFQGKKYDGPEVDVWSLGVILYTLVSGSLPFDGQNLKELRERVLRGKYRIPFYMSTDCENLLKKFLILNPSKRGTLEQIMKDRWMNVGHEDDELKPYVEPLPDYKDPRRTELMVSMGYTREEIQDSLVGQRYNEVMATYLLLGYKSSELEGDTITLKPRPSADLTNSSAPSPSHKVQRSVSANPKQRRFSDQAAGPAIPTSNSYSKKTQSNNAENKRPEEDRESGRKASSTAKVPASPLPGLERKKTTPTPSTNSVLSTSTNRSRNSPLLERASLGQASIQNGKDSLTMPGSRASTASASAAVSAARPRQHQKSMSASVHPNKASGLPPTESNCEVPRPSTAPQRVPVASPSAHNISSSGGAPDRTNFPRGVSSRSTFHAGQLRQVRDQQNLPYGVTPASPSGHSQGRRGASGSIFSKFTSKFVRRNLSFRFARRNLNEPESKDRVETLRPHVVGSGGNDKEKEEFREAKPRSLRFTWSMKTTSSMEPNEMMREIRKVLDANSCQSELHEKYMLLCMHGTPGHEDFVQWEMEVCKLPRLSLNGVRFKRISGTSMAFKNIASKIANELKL

With `CCc1ccc2c(c1)C1(NN=C(c3cccc4ccccc34)S1)C(=O)N2` (centres unmarked) [OGM1, 5-ethyl-5′-naphthalen-1-ylspiro[1H-indole-3,2′-3H-1,3,4-thiadiazole]-2-one], the remaining binding at 10 µM at PLK1 was found to be 100%; at GCN2(Kin.Dom.2, S808G), 100%; at OSR1 it was 92%; at MTOR it was 86%; on DCAMKL3, 100%; on MARK2, 100%. For the same molecule, the remaining binding at 10 µM on NEK11 stood at 88%; at TGFBR2 it was 100%; in test [1], 91%. The molecule further registered an Antagonism on EP3 (10 uM) of 6.3. The molecule also came in with an Agonism at EP3 (12.5 uM) of 0.4. The phenotypes induced result in the test with zebrafish embryo was “reproducibly induced ventral curvature, wavy notochord, shortened body axis, craniofacial defects, and loss of retinal iridophores”.
As to `CCc1ccc2c(c1)C1(NN=C(c3ccccc3)S1)C(=O)N2` (centres unmarked) [OGM2], in the test with SW480, the “% Survival 2 μM OGM” value was determined as 39.8% and the “% Survival 10 μM OGM” value is on record as 25.0%. Besides, the CC50 in the test with SW480 (Homo sapiens, SW480, read-out: LC50 (the source's name)) is less than 2 µM. Moreover, the “mitochondrial membrane potential (TMRM)” value in the test on U87 is “decreased mitochondrial membrane potential”. Moreover, the “inflammatory cell infiltrates in BAL” value in the test on LPS-induced ALI was “reduced inflammatory cell infiltrates in BAL”.
